In patent US9732070B2, “Protein kinase C inhibitors and uses thereof” (Rigel Pharmaceuticals, Inc., priority 2009, dated 2017):

Test system: Human primary T cells
Assay: IL-2 ELISA, human primary T cell, anti-CD3+CD28 stimulation
Type: cell-based
Details: T-cell; IL-2 quantified by ELISA; human primary T cells stimulated with αCD3 and αCD28, 24 hours
Description: Human primary T cell isolation and culture: Human primary T cells were prepared as follows. Whole blood was obtained from a healthy volunteer, mixed 1:1 with PBS, layered on to Ficoll Hypaque (Amersham Pharmacia Biotech, Piscataway, N.J., Catalog #17-1440-03) in 2:1 blood/PBS:ficoll ratio and centrifuged for 30 minutes at 4° C. at 1750 rpm. The cells at the serum: ficoll interface were recovered and washed twice with 5 volumes of PBS. These freshly isolated human peripheral blood mononuclear cells were cultured in Yssel's medium containing 40 U/mL IL2 in a flask pre-coated with 1 μg/mL αCD3 and 5 μg/mL αCD28 (Anti-Human CD3, BD Pharmingen Catalog #555336, Anti-Human CD28, Beckman Coulter Catalog #IM1376). The cells were stimulated for 3-4 days, then transferred to a fresh flask and maintained in RPMI (RPMI-1640 with L-Glutamine; Mediatech, Inc., Herndon Va., cat. #10-040-CM) with 10% FBS and 40 U/mL IL-2. The primary T-cells were then washed twice with PBS to remove the IL-2.
Primary T cell stimulation and IL2 ELISA: Human primary T cells (100,000 cells per well) were pre-incubated with or without test compound in Yssel's medium for 1 hour at 37° C. Cells were then stimulated by transferring them to round-bottom 96-well plates pre-coated with 1 μg/ml αCD3 and 5 μg/ml αCD28. For counter assay, cells were instead stimulated by adding 8× stock solutions of PMA and ionomycin in Yssels (for final concentrations of 0.5 ng/ml PMA and 0.1 uM ionomycin, both from Calbiochem). Cells were incubated at 37° C. for 24 hours before 100 μL supernatants were harvested for quantification of IL-2 by ELISA using Human IL-2 Duoset ELISA Kit from R and D Systems, Cat. # DY202E.

SMILES	IC50 [µM]
Cn1nnn(-c2cc(Nc3ncc(F)c(NC4CC(C)(C)NC(C)(C)C4)n3)ccc2Cl)c1=O [I-30, N2-{4-chloro-[3-(4-methyl)-1,2,3,4-tetrazol-5-one-1-yl]}phenyl-5-fluoro-N4-(2,2,6,6-tetramethylpiperidin-4-yl)-2,4-pyrimidinediamine]	< 0.5
COc1cc(Nc2ncc(F)c(NC3CC(C)(C)N(C)C(C)(C)C3)n2)cc(-n2nnn(C)c2=O)c1 [I-31, N2-{5-methody-[3-(4-methyl)-1,2,3,4-tetrazol-5-one-1-yl]}phenyl-5-fluoro-N4-(1,2,2,6,6-pentamethylpiperidin-4-yl)-2,4-pyrimidinediamine]	< 0.5
COc1cc(Nc2ncc(F)c(NC3CC(C)(C)NC(C)(C)C3)n2)cc(-n2nnn(C)c2=O)c1 [I-32, N2-{5-methody-[3-(4-methyl)-1,2,3,4-tetrazol-5-one-1-yl]}phenyl-5-fluoro-N4-(2,2,6,6-tetramethylpiperidin-4-yl)-2,5-pyrimidinediamine]	< 0.5
Cn1nnn(-c2cc(Nc3ncc(F)c(NC4CC(C)(C)NC(C)(C)C4)n3)ccc2C2CC2)c1=O [I-33, N2-{4-cyclopropyl-[3-(4-methyl)-1,2,3,4-tetrazol-5-one-1-yl]}phenyl-5-fluoro-N4-(2,2,6,6-tetramethylpiperidin-4-yl)-2,4-pyrimidinediamine]	< 0.5
CN1C(C)(C)CC(Nc2nc(Nc3ccc(C4CC4)c(-n4nnn(C)c4=O)c3)ncc2F)CC1(C)C [I-34, N2-{4-cyclopropyl-[3-(4-methyl)-1,2,3,4-tetrazol-5-one-1-yl]}phenyl-5-fluoro-N4-(1,2,2,6,6-pentamethylpiperidin-4-yl)-2,4-pyrimidinediamine]	< 0.5
Cn1nnn(-c2cc(Nc3ncc(F)c(NC4CC(C)(C)NC(C)(C)C4)n3)cc(C3CC3)c2)c1=O [I-35, N2-{5-cyclopropyl-[3-(4-methyl)-1,2,3,4-tetrazol-5-one-1-yl]}phenyl-5-fluoro-N4-(2,2,6,6-tetramethylpiperidin-4-yl)-2,4-pyrimidinediamine]	< 0.5
CN1C(C)(C)CC(Nc2nc(Nc3cc(C4CC4)cc(-n4nnn(C)c4=O)c3)ncc2F)CC1(C)C [I-36, N2-{5-cyclopropyl-[3-(4-methyl)-1,2,3,4-tetrazol-5-one-1-yl]}phenyl-5-fluoro-N4-(1,2,2,6,6-pentamethylpiperidin-4-yl)-2,4-pyrimidinediamine]	< 0.5
Cn1nnn(-c2cc(Cl)cc(Nc3ncc(F)c(NC4CC(C)(C)NC(C)(C)C4)n3)c2)c1=O [I-37, N2-{5-chloro-[3-(4-methyl)-1,2,3,4-tetrazol-5-one-1-yl]}phenyl-5-fluoro-N4-(2,2,6,6-tetramethylpiperidin-4-yl)-2,4-pyrimidinediamine]	0.51 to 2.99
Cn1nnn(-c2cc(Nc3ncc(F)c(NC4CC(C)(C)NC(C)(C)C4)n3)cc(C(F)(F)F)c2Cl)c1=O [I-38, N2-{4-chloro-5-trifluoromethyl-[3-(4-methyl)-1,2,3,4-tetrazol-5-one-1-yl]}phenyl-5-fluoro-N4-(2,2,6,6-tetramethylpiperidin-4-yl)-2,4-pyrimidinediamine]	< 0.5
Cn1nnn(-c2cc(Nc3ncc(F)c(NC4CC(C)(C)NC(C)(C)C4)n3)cc(C(F)(F)F)c2C2CC2)c1=O [I-39, N2-{4-cyclopropyl-5-trifluoromethyl-[3-(4-methyl)-1,2,3,4-tetrazol-5-one-1-yl]}phenyl-5-fluoro-N4-(2,2,6,6-tetramethylpiperidin-4-yl)2,5-pyrimidinediamine]	< 0.5
CN1C(C)(C)CC(Nc2nc(Nc3cc(-n4nnn(C)c4=O)c(C4CC4)c(C(F)(F)F)c3)ncc2F)CC1(C)C [I-40, N2-{4-cyclopropyl-5-trifluoromethyl-[3-(4-methyl)-1,2,3,4-tetrazol-5-one-1-yl]}phenyl-5-fluoro-N4-(1,2,2,6,6-pentamethylpiperidin-4-yl)-2,4-pyrimidinediamine]	< 0.5
Cn1nnn(-c2cc(Nc3ncc(C#N)c(NC4CC(C)(C)NC(C)(C)C4)n3)cc(C(F)(F)F)c2C2CC2)c1=O [I-41, 5-cyano-N2-{4-cyclopropyl-5-trifluoromethyl-[3-(4-methyl)-1,2,3,4-tetrazol-5-one-1-yl]}phenyl-N4-(2,2,6,6-tetramethylpiperidin-4-yl)-2,4-pyrimidinediamine]	< 0.5
CN1C(C)(C)CC(Nc2nc(Nc3cc(-n4nnn(C)c4=O)c(C4CC4)c(C(F)(F)F)c3)ncc2C#N)CC1(C)C [I-42, 5-cyano-N2-{4-cyclopropyl-5-trifluoromethyl-[3-(4-methyl)-1,2,3,4-tetrazol-5-one-1-yl]}phenyl-N4-(1,2,2,6,6-pentamethylpiperidin-4-yl)-2,4-pyrimidinediamine]	< 0.5
Cn1nnn(-c2cc(Nc3ncc(F)c(NC4CC(C)(C)NC(C)(C)C4)n3)cc(C3CC3)c2F)c1=O [I-43, N2-{5-cyclopropyl-4-fluoro-[3-(4-methyl)-1,2,3,4-tetrazol-5-one-1-yl]}phenyl-5-fluoro-N4-(2,2,6,6-tetramethylpiperidin-4-yl)-2,4-pyrimidinediamine]	< 0.5
Cn1nnn(-c2cc(Nc3ncc(C#N)c(NC4CC(C)(C)NC(C)(C)C4)n3)cc(C3CC3)c2F)c1=O [I-44, 5-cyano-N2-{5-cyclopropyl-4-fluoro-[3-(4-methyl)-1,2,3,4-tetrazol-5-one-1-yl]}phenyl-N4-(2,2,6,6-tetramethylpiperidin-4-yl)-2,4-pyrimidinediamine]	< 0.5
Cc1cc(Nc2ncc(F)c(NC3CC(C)(C)N(C)C(C)(C)C3)n2)cc(-n2nnn(C)c2=O)c1C [I-45, N2-(4,5-dimethyl-3-(4-methyl-4,5-dihydro-5-oxo-1H-tetrazol-1-yl)phenyl)-5-fluoro-N4-(1,2,2,6,6-pentamethylpiperidin-4-yl)pyrimidine-2,4-diamine]	< 0.5
Cc1cc(Nc2ncc(F)c(NC3CC(C)(C)NC(C)(C)C3)n2)cc(-n2nnn(C)c2=O)c1C [I-46, N2-(4,5-dimethyl-3-(4-methyl-4,5-dihydro-5-oxo-1H-tetrazol-1-yl)phenyl)-5-fluoro-N4-(2,2,6,6-tetramethylpiperidin-4-yl)pyrimidine-2,4-diamine]	< 0.5
CN1C(C)(C)CC(Nc2nc(Nc3cc(-n4nnn(C)c4=O)cc(C(F)(F)F)c3)ncc2F)CC1(C)C [I-47, N2-(3-(4-methyl-4,5-dihydro-5-oxo-1H-tetrazol-1-yl)-5-trifluoromethylphenyl)-5-fluoro-N4-(1,2,2,6,6-pentamethylpiperidin-4-yl)pyrimidine-2,4-diamine]	< 0.5
Cn1nnn(-c2cc(Nc3ncc(F)c(NC4CC(C)(C)NC(C)(C)C4)n3)cc(C(F)(F)F)c2)c1=O [I-48, N2-(3-(4-methyl-4,5-dihydro-5-oso-1H-tetrazol-1-yl)-5-trifluoromethylphenyl)-5-fluoro-N4-(2,2,6,6-tetramethylpiperidin-4-yl)pyrimidine-2,5-diamine]	< 0.5
CN1C(C)(C)CC(Nc2nc(Nc3cc(C#N)cc(-n4nnn(C)c4=O)c3)ncc2F)CC1(C)C [I-49]	< 0.5
Cn1nnn(-c2cc(C#N)cc(Nc3ncc(F)c(NC4CC(C)(C)NC(C)(C)C4)n3)c2)c1=O [I-50, N2-(5-cyano-3-(4-methyl-4,5-dihysro-5-oxo-1H-tetrazol-1-yl)phenyl)-5-fluoro-N4-(2,2,6,6-tetramethylpiperidin-4-yl)pyrimidine-2,4-diamine]	< 0.5
